Assay results taken from US20100255089A1, “Pharmaceutical Compositions and Methods of Using Same” (priority 2006, published 2010).

Assay: physchem
Conditions: simulated gastric fluid
Description: In an uncapped vial, one part of the compound of Formula I is mixed with three, four, six, or nine parts polyvinylpyrrolidone (PVP-25/Kollidon 25), respectively. The mixture is dissolved in a sufficient amount of a mixture of acetone and ethanol, until all powders were in solution. The uncapped vial is placed into a vacuum oven set at 40° C., and let dry for at least 24 hours.
After that treatment, an amorphous state of the powder is achieved, which could be identified, e.g. by X-ray diffraction measurements or by determination of the solubility.

Structure (SMILES): Cc1cc(C)c2c3ccccc3n(Cc3ccc([C@@H](C(=O)N[C@@H](CO)c4ccccc4)C4CCCC4)cc3)c2n1 [compound of Formula I, (2S)-2-cyclopentyl-2-(4-((2,4-dimethyl-9H-pyrido(2,3-B)indol-9-yl)methyl)-phenyl)-N-((1R)-2-hydroxy-1-phenylethyl)acetamide]
- solubility: 0.1 µg/mL
